Assay results taken from paper PMC5738360, “Engineering cell sensing and responses using a GPCR-coupled CRISPR-Cas system” (Nature Communications, 2017).

Experiments:
Experiment in all cases: ChaCha beta-arrestin/TEV-release GFP reporter in HEK293T cells
Type in all cases: cell-based
[1] = biological target: T1, kappa opioid receptor DREADD (KORD) (Homo sapiens, UniProt P41145, D138N)
T1 construct: gene OPRK1; KORD-V2-TEVp; with ARRB2 (ARRB2-TCS-dCas9-VPR)

[2] = biological target: T2, TRHR (Homo sapiens, UniProt P34981)
T2 construct: TRHR-V2-TEVp; with ARRB2 (ARRB2-TCS-dCas9-VPR)
T2 sequence (P34981 whole entry): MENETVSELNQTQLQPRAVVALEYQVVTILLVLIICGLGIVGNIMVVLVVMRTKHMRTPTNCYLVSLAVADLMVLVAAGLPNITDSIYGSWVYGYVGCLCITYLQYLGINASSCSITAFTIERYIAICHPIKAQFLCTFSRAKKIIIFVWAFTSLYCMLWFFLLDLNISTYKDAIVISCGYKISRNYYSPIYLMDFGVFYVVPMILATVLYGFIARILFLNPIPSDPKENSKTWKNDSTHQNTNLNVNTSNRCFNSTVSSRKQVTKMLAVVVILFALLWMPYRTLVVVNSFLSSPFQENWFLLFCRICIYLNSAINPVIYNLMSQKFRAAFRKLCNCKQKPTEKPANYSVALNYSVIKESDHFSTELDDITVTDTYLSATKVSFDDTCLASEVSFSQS
T2 sequence (P32121 whole entry partner): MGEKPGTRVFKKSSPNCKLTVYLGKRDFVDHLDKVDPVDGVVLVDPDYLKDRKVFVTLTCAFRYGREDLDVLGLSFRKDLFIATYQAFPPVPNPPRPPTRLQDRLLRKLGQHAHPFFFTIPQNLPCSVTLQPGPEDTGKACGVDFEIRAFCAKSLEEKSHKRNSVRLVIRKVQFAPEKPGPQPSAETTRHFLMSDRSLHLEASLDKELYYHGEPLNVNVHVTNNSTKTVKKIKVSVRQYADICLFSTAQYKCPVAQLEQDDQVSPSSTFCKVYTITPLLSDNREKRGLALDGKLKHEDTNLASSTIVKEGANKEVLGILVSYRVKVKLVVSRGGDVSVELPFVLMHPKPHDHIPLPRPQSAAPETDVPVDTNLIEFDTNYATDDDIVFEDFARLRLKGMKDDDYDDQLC

[3] = biological target: T3, LPAR1 (Homo sapiens, UniProt Q92633)
T3 construct: LPAR1-V2-TEVp; with ARRB2 (ARRB2-TCS-dCas9-VPR)
T3 sequence (Q92633 whole entry): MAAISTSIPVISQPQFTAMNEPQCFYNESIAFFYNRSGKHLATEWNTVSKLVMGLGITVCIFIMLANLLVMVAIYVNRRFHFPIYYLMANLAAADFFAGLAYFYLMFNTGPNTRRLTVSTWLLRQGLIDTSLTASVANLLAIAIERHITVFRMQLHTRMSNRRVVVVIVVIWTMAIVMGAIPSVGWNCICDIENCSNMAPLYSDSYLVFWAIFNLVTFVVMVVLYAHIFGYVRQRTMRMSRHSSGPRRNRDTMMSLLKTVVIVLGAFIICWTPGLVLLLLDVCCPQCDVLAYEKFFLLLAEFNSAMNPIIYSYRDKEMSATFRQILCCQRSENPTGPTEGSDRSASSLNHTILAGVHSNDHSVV
T3 sequence (P32121 whole entry partner): as the sequence (P32121 whole entry partner) above

T1 sequence (P41145 whole entry D138N): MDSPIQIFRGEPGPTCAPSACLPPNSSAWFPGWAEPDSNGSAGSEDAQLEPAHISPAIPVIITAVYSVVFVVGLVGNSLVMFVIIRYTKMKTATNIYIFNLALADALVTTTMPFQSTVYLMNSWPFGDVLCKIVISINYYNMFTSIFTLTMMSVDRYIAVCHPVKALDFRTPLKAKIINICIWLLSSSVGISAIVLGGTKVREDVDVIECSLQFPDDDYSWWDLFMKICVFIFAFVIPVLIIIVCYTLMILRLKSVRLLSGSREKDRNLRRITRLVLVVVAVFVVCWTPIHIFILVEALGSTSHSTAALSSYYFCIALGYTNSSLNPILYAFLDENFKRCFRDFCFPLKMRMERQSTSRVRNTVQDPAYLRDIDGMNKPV
T1 sequence (P32121 whole entry, further chain): as the sequence (P32121 whole entry partner) above

COC(=O)[C@@H]1C[C@H](O)C(=O)[C@H]2[C@@]1(C)CC[C@H]1C(=O)O[C@H](c3ccoc3)C[C@]21C [Salvinorin B]
ChaCha beta-arrestin/TEV-release GFP reporter in HEK293T cells [1]: another evolved GPCR, the kappa opioid receptor DREADD (KORD), which senses Salvinorin B

NC(=O)[C@@H]1CCCN1C(=O)[C@H](Cc1cnc[nH]1)NC(=O)[C@@H]1CCC(=O)N1 [thyrotropin-releasing hormone]
ChaCha beta-arrestin/TEV-release GFP reporter in HEK293T cells [2]: TRHR, which senses thyrotropin-releasing hormone

CCCCCCCC/C=C\CCCCCCCC(=O)OC[C@@H](O)COP(=O)(O)O [lysophosphatidic acid]
ChaCha beta-arrestin/TEV-release GFP reporter in HEK293T cells [3]: LPAR1, which senses the fatty acid lysophosphatidic acid
